Structures can show the parent of a compound that is named as a salt.
Tested on: ddY male mice
Test: Anti-hypoxic activity
Format: in vivo
Settings: 100 mg/kg orally, 30 minutes after administration, gas 4% oxygen / 96% nitrogen at 5 L/minute
Procedure: A test compound (100 mg/kg) dissolved in distilled water is orally administered to ddY male mice of 5-6 weeks age (6-10 heads per group). Thirty minutes after the administration, each mouse was introduced into a glass vessel, and a gas mixture consisting of 4% of oxygen and 96% of nitrogen was passed through the glass vessel at a rate of 5 L/minute. The period of the time from the beginning of sending the gas to the death of the animal was measured.
To the control group, only distilled water was orally given. Anti-hypoxic activity of test compound was calculated according to the following equation:
(Survival time of mouse in administered group)÷(Survival time of mouse in control group)×100(%)

| SMILES | Anti-hypoxic activity: (survival time of mouse in administered group)÷(survival time of mouse in control group)×100 |
| --- | --- |
| C#CCN(C)CCOCCc1ccc2sccc2c1.Cl [Example 70, N-[2-(2-benzo[b]thiophen-5-ylethoxy)ethyl]-N-methyl-N-(2-pripynyl)amine hydrochloride] | 213% |

Same assay, conditions: Mus musculus, po, 0.5 h, 100 mg/kg orally, 30 minutes after administration, gas 4% oxygen / 96% nitrogen at 5 L/minute, read-out: Anti-hypoxic activity: (survival time of mouse in administered group)÷(survival time of mouse in control group)×100

| SMILES | response vs control in vivo at 100 mg/kg |
| --- | --- |
| CN(CCOCCc1ccc2sccc2c1)Cc1ccccc1.O=C(O)C(=O)O [Example 20, N-[2-(2-benzo[b]thiophen-5-ylethoxy)ethyl]-N-benzyl-N-methylamine oxalate] | 155% |
| CCN(CC)CCOCCc1cc2ccsc2cc1F [Example 31, N,N-diethyl-N-{2-[2-(6-fluorobenzo[b]thiophen-5-yl)ethoxy]ethyl}amine oxalate] | 248% |
| COc1cc2sccc2cc1CCOCCN(C)C [Example 53, N,N-Dimethyl-N-{2-[2-(6-methoxybenzo[b]thiophen-5-yl)ethoxy]ethyl}-amine hydrochloride] | 200% |
| CN(CCO)CCCOCCc1ccc2sccc2c1.O=C(O)C(=O)O [Example 76, 2-{[3-(2-benzo[b]thiophen-5-ylethoxy)propyl]-(methyl)amino}-1-ethanol oxalate] | 194% |
| CN(CCOCCc1ccc2sccc2c1)C1CC1 [Example 158, N-[2-(2-benzo[b]thiophen-5-ylethoxy)ethyl]-N-cyclopropyl-N-methylamine hydrochloride] | 179% |
| CCN(C)CCOCCc1ccc2sccc2c1 [Example 102, N-[2-(2-Benzo[b]thiophen-5-ylethoxy)ethyl]-N-ethyl-N-methylamine oxalate] | 210% |
| CC(O)CN(C)CCOCCc1ccc2sccc2c1 (stereo not shown) [Example 144, 1-{[2-(2-Benzo[b]thiophen-5-ylethoxy)ethyl]-(methyl)amino}-2-propanol oxalate] | 250% |
| CCN(CC)CCOCCc1cccc2ccccc12 [Example 49, N,N-diethyl-N-{2-[2-(1-naphthyl)ethoxy]ethyl}-amine oxalate] | 173% |
| CCN(CC)CCOCCc1ccc2occc2c1 [Example 13, N-[2-(2-Benzo[b]furan-5-ylethoxy)ethyl]-N,N-diethylamine oxalate] | 160% |
| CCN(CC)CCOCCc1ccc2ccsc2c1 [Example 101, N-[2-(2-Benzo[b]thiophen-6-ylethoxy)ethyl]-N,N-diethylamine oxalate] | 187% |

Tested on: cultured nerve cells death induced by HNE
Test: Activity of inhibiting the HNE-induced nerve cell death (MTT assay)
Format: cell-based, Wistar rat
Settings: 0.1 μM; HNE 25 μmol/L; cultured rat embryo cerebral cortex nerve cells; 24 hours
Text: The protecting effect against the death of cultured nerve cells induced by HNE was examined by a modification of the method described in the Journal of Neuroscience, Vol. 17, Page 5089 (1997).
Cerebral cortex excised from the brain of an embryo of Wistar rat (embryonal age 17-19 days) was cut into small pieces and then treated with trypsin to dissociate the nerve cells. The cells were spread onto a 48-well tissue-culture plate at a rate of 5×10^5 cells per well, and cultured under a condition of 5% carbon dioxide, 37° C., in a Dulbecco modified Eagle medium to which 10% fetal calf serum and 3.6 mg/mL glucose were added.
In order to inhibit the proliferation of glia cells, cytosine arabinoside was added so as to give a final concentration of 10 μmol/L, from the day one after starting the culture. When the culture had been continued for 2 days, the medium was changed to a Dulbecco modified Eagle medium to which 10% fetal calf serum and 3.6 mg/mL glucose were added. When the culture had been continued for 7-8 days, a test agent was added, after which HNE was immediately added so as to give a final concentration of 25 μmol/L.
The inhibitory activity of an agent on the cultured nerve cell death was […] by using the inhibitory activity on the depression of MTT reducing ability as an index. That is, 24 hours after addition of a test agent, MTT assay [Journal of Immunological Methods, Vol. 65, Page 55 (1983)] developed by Mossmann was carried out, based on which inhibitory rate (%) of the agent on the decrease of MTT assay induced by HNE was calculated.
Inhibitory rate=[MTT assay value of (HNE+agent)−added group)−(MTT assay value of HNE−added group)]÷(MTT assay value of no addition group−MTT assay value of HNE−added group)]×100

| SMILES | Inhibitory rate on the decrease of MTT assay induced by HNE |
| --- | --- |
| CCN(CC)CCOCCc1ccc2c(c1)CCC2.Cl [Example 105, N-{2-[2-(2,3-Dihydro-1H-inden-5-yl)ethoxy]ethyl}-N,N-diethylamine hydrochloride] | 31% |
| CN(CCOCCc1ccc2sccc2c1)Cc1ccccc1.O=C(O)C(=O)O [Example 20, N-[2-(2-benzo[b]thiophen-5-ylethoxy)ethyl]-N-benzyl-N-methylamine oxalate] | 69% |
| CN(CCO)CCCOCCc1ccc2sccc2c1.O=C(O)C(=O)O [Example 76, 2-{[3-(2-benzo[b]thiophen-5-ylethoxy)propyl]-(methyl)amino}-1-ethanol oxalate] | 49% |

Tested on: not given
Test: not given
Settings: not given

| SMILES | melting point |
| --- | --- |
| CN(C)CCOCCc1cccc2sccc12.Cl | 165 to 167 °C |
| CCCN(CCC)CCOCCc1ccc2sccc2c1.O=C(O)C(=O)O | 93 to 98 °C |
| CCN(CC)CCOCCc1ccc2sc(C(=O)O)cc2c1.Cl | 148 to 150 °C |
| CN(C)CCOCCc1ccc2sccc2c1Cl.Cl | 92 to 95 °C |
| COc1ccc(CN(C)CCOCCc2ccc3sccc3c2)cc1.O=C(O)C(=O)O | 78.5 to 81 °C |
| CCN(CC)CCOCCc1ccc2c(c1)CCC2.Cl [Example 105, N-{2-[2-(2,3-Dihydro-1H-inden-5-yl)ethoxy]ethyl}-N,N-diethylamine hydrochloride] | 104 to 105 °C |
| CN(C)CCOCCc1cc2ccsc2cc1Cl.Cl | 105 to 108 °C |
| C#CCN(CCOCCc1ccc2sccc2c1)Cc1ccccc1.O=C(O)C(=O)O | 107 to 108 °C |
| CN(C)CCOCCc1ccc(F)c2ccsc12.Cl | 67 to 69 °C |
| CN(CCOCCc1ccc2sccc2c1)Cc1ccc(F)cc1.O=C(O)C(=O)O | 149 to 150.5 °C |
| C#CCN(CC)CCOCCc1ccc2sccc2c1.Cl | 115 to 123 °C |
| CCN(CC)CCOCCc1ccc2c(c1)OCO2 [Example 25, N-{2-[2-(1,3-benzodioxol-5-yl)ethoxy]ethyl}-N,N-diethylamine] | 83 to 84 °C |
| CN(C)CCOCCc1ccc2sc(-c3ccccc3)cc2c1.Cl | 170 to 172 °C |
| CCN(CC)CCOCCc1cccc2sccc12.O=C(O)C(=O)O | 79 to 82 °C |
| CN(CCOCCc1ccc2sccc2c1)CCOC(=O)C(C)(C)C.Cl | 118 to 119 °C |
| COc1ccc2cc(CCOCCN(C)C)ccc2c1.Cl | 125 to 128 °C |
| Cc1cc2cc(CCOCCN(C)CCO)ccc2s1.O=C(O)C(=O)O | 73 to 75 °C |
| CCN(CC)CCOCCc1c(F)ccc2ccsc12.Cl | 71 to 73.5 °C |
| CCN(CC)CCOCCc1cccc2ccsc12.O=C(O)C(=O)O | 75 to 76 °C |
| CN(CCO)CCOCCc1c(F)ccc2ccsc12.Cl | 69 to 72 °C |
| CCN(CC)CCOCCc1c(F)cc2ccsc2c1F.Cl | 98 to 100 °C |
| CN(CCOCCc1ccc2sccc2c1)Cc1ccc([N+](=O)[O-])cc1.O=C(O)C(=O)O | 112 to 114 °C |
| CCN(CC)CCOCCc1cc2occc2cc1OC.Cl | 90 to 92 °C |
| CCN(CC)CCOCCc1ccc2occc(=O)c2c1.Cl | 173 to 176 °C |
| CN(C)CCOCCc1ccc2sccc2c1F.O=C(O)C(=O)O | 118 to 121 °C |
| CCN(CC)CCOCCc1ccc2sc(C)cc2c1.O=C(O)C(=O)O | 96 to 98 °C |
| CCN(CC)CCCCCc1ccc2sccc2c1.O=C(O)C(=O)O | 58 to 60 °C |

| SMILES | melting point |
| --- | --- |
| CN(C)CCOCCc1cccc2ccccc12.Cl | 183 to 184 °C |
| CCN(CC)CCCCCOCCc1ccc2sccc2c1.Cl | 138.5 to 140 °C |
| CC(COCCc1ccc2sccc2c1)N(C)CCO.O=C(O)C(=O)O (stereo not shown) | 72 to 74 °C |
| CN(C)CCOCCc1ccc2ccccc2c1.Cl | 105 to 107 °C |
| CN(CCCO)CCOCCc1ccc2sccc2c1.O=C(O)C(=O)O | 93 to 95 °C |
| O=C(O)C(=O)O.OCCN(CCOCCc1ccc2sccc2c1)Cc1ccccc1 | 104 to 105.5 °C |
| CCN(CC)CCOCCc1cc2ccsc2cc1OC.O=C(O)C(=O)O | 80 to 83 °C |
| CN(C)CCOCCc1ccc2c(c1)OCO2.O=C(O)C(=O)O | 109 to 112 °C |
| CN(CCO)CCOCCc1cc2ccsc2cc1F.O=C(O)C(=O)O | 96 to 99 °C |
| CN(C)CCN(C)CCOCCc1ccc2sccc2c1.Cl.Cl | 228 to 230 °C |
| CCN(CC)CCOCCc1ccc2ccccc2c1.O=C(O)C(=O)O | 67 to 72 °C |
| CCOC(=O)OCCN(C)CCOCCc1ccc2sccc2c1.Cl | 73.5 to 76 °C |
| CN(CCOCCc1cc2ccsc2cc1F)Cc1ccccc1.O=C(O)C(=O)O | 96 to 98 °C |
| CN(CCO)CCOCCc1cccc2ccsc12.Cl | 74 to 76 °C |
| CN(C)CCOCCc1cc2ccsc2cc1F.O=C(O)C(=O)O | 120 to 126 °C |
| CN(C)CCOCCc1ccc2occc2c1.O=C(O)C(=O)O | 101 to 103 °C |
| CN(C)CCOCCc1cccc2ccsc12.Cl | 130 to 132 °C |
| CCN(CC)CCOCCc1ccc2ncccc2c1.O=C(O)C(=O)O | 90 to 92 °C |
| CN(CCO)CCCCCOCCc1ccc2sccc2c1.O=C(O)C(=O)O | 78.5 to 80.5 °C |
| CN(CCOCCc1ccc2sccc2c1)CCOC(=O)c1ccccc1.Cl | 97 to 98 °C |
| CCN(CC)CCCOCCc1ccc2sccc2c1.O=C(O)C(=O)O | 87.5 to 89 °C |
| CN(CCO)CCOCCc1ccc2sc(F)cc2c1.O=C(O)C(=O)O | 77 to 80 °C |
| CC(CO)N(C)CCOCCc1ccc2sccc2c1.O=C(O)C(=O)O (stereo not shown) | 97 to 99 °C |
| CC(C)N(CCOCCc1ccc2sccc2c1)C(C)C.Cl | 78 to 79 °C |
| CCC(Cc1ccc2sccc2c1)OCCN(CC)CC.Cl (stereo not shown) | 84.5 to 87 °C |
| CCN(CCO)CCOCCc1ccc2sccc2c1.O=C(O)C(=O)O | 53 to 56 °C |

Source: patent US6797726B1, “N-alkoxyalkyl-N,N-dialkylamine derivatives or salts thereof, and remedies for nerve degeneration diseases containing the same” (Toyama Chemical Co., Ltd., priority 1999, dated 2004)
